Measured values as given in publication PMC11168191, “Systemic Treatment with siRNA Targeting Gamma-Secretase Activating Protein Inhibits Amyloid-β Accumulation in Alzheimer’s Disease” (Biomaterials Research, 2024).
Like-named read-outs stand apart in the source and are kept apart here. Blank lines part the entries; values can stand above or below the molecule they belong to. Bridge positions count the residues as written; N and C are the ends. Ends that are not written are not given here. I, II: the chains in the order shown.

Tests used:
[1] = tested on: SOD1; assay: SOD1 gene silencing in mouse organs and brain regions, qPCR; format: in vivo, mice; conditions: 400 pmol siSOD1, 100 μg peptide, tail vein, daily for 3 d, n = 8
Protocol: All procedures were performed in compliance with guidelines and protocols approved by the Institutional Animal Care and Use Committee (IACUC) of Hanyang University. The Balb/c mice were used to test the in vivo delivery of complexed particles to the brain. To ascertain ligand-receptor-mediated delivery of diLep9R3LC:siRNA, the leptin-receptor-deficient (db/db, Jackson Laboratory, ME) strains were utilized. Further, to study therapeutic efficacy of siRNA in AD, 7-month-old male 3xTg (B6;129-Psen1tm1Mpm Tg (APPSwe,tauP301L)1Lfa/Mmjax) mice (Jackson Laboratory, ME) were used. These mice show AD-like pathological and physiological characteristics with respect to formation of Aβ plaques and tangled tau as well as abnormal behaviors. […] In all experiments, a group of control mice (n = 4) were also injected with DPBS (pH 7.4).
For quantitative polymerase chain reaction (qPCR), total RNA was extracted from N2a cells 24 h posttransfection and homogenized brain samples using the RNAiso kit (Takara, Kyoto, Japan). The RNA was quantified with SYBR premix Ex Taq perfect real time (Takara, Kyoto, Japan) with qPCR primers. In all cases, relative gene expression was calculated in comparison to normalized target mRNA levels in nontreated groups. […] All primers were synthesized from Cosmogenetech (Seoul, Korea), and sequences are depicted below.

[2] = target: T1, leptin receptor (Homo sapiens, UniProt P48357); assay: SPR biosensor binding of peptide to immobilized leptin receptor; conditions: for kon: read-out: association constant (Ka)
T1 construct: purchased R&D Systems
T1 sequence (P48357 22-1165): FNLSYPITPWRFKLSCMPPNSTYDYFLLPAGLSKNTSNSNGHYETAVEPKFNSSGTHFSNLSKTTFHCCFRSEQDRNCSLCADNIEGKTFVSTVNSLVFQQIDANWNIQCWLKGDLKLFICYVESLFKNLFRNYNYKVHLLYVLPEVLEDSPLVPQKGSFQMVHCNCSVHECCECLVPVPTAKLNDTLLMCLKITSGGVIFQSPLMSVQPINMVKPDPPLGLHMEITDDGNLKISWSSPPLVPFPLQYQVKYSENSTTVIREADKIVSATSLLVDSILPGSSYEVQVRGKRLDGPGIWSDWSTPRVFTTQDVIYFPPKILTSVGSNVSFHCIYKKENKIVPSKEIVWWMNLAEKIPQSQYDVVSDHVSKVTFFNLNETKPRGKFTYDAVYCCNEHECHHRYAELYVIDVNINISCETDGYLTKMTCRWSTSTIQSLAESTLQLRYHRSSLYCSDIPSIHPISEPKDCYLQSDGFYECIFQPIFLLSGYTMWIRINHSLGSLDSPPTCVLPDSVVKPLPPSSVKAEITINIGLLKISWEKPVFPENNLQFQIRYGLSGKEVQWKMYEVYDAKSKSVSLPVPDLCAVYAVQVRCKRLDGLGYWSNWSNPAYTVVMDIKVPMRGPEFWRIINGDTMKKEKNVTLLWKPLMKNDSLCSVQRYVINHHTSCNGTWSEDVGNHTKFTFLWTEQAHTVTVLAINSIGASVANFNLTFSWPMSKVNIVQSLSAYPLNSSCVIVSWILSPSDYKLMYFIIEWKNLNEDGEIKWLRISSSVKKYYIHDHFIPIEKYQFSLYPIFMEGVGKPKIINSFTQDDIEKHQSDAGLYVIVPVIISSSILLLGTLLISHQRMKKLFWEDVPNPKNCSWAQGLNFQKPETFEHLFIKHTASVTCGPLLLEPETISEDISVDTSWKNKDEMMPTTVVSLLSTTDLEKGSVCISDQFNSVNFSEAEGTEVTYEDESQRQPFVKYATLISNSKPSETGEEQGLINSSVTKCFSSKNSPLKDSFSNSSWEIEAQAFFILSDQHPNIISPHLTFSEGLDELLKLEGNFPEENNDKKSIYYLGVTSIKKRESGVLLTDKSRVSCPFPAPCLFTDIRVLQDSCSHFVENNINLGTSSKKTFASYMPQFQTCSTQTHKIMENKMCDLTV
Protocol: The direct binding of diLep9R3LC or Lep9R3LC to the target was evaluated using a dual-channel surface plasmon resonance (SPR) instrument (Reichert SR7500DC system, Depew, NY). The process of immobilizing the leptin receptor protein (R&D Systems, Minneapolis, MN) onto the sensor chip surface was accomplished using free amine coupling through an 1-ethyl-3-(3-dimethylaminopropyl) carbodiimide hydrochloride (EDC)/N-hydroxysuccinimide (NHS) reaction. The process of the EDC/NHS reaction involves injecting a mixture containing 0.1 M EDC and 0.05 M NHS. Subsequently, the remaining activated carboxyl groups were quenched with 1 M ethanolamine at pH 6.0. All dilutions of the working peptides were prepared in the running buffer (PBS with 1% DMSO) and injected for 3 min (association time) at a flow rate of 50 μl/min followed by a dissociation phase of 3 min. Nonspecific background binding was subtracted from each sensogram using SPR_V4017 Data Acquisition and Alignment Program (Reichert, Depew, NY). Binding rates and constants were independent of flow rate over a wide range. Best-fit kinetic parameters were obtained by global fitting analysis using Scrubber2 (Biologic Software, Australia).

[3] = tested on: N2a cells; assay: Cytotoxicity, Cell Counting Kit-8 assay; conditions: 24 h posttransfection, Cell Counting Kit-8, at tested weight ratio, with siSOD1 (Fig. 1G)
[4] = tested on: N2a cells
[5] = target: T2, leptin receptor (Mus musculus, UniProt P48356); assay: SPR
T2 chain: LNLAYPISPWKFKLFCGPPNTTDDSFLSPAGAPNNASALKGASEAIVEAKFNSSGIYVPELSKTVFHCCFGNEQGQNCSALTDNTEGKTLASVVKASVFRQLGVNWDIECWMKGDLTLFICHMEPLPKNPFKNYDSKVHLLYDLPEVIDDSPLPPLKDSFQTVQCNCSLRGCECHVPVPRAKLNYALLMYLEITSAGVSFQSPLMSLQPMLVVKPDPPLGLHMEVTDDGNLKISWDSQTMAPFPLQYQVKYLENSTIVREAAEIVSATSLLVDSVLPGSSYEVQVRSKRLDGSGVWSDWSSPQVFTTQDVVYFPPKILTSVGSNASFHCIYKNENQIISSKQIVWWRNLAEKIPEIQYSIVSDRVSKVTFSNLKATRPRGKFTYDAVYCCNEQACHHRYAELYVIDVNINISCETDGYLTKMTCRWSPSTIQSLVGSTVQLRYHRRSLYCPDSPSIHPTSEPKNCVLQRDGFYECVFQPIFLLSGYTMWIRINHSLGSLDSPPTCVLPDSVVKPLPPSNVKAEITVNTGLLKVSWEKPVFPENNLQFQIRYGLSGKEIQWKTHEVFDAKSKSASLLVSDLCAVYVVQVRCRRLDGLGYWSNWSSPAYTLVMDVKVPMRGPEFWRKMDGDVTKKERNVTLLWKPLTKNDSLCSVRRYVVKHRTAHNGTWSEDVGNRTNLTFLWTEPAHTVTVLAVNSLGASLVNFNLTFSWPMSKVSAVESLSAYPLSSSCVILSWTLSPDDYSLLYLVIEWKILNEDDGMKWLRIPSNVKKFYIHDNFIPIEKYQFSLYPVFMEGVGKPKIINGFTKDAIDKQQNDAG

kon ([2]; SPR Reichert SR7500DC, amine-coupled receptor, running buffer PBS with 1% DMSO, 3 min association, 3 min dissociation, 50 μl/min, global fit Scrubber2): 1100 M⁻¹ s⁻¹
Kd ([2]; SPR, leptin receptor immobilized, PBS with 1% DMSO, global fit, read-out: binding affinity (KD) (Kd/Ka)): 1.38 µM
Molecule: YQQVLTSLPSQNVLQIANDLENLRDLLHLLGGGGRRRRRRRRRLLLC [Lep9R3LC]
cytotoxicity [4]: did not show any cytotoxicity

Kd [5]: 1.38 µM
B1: Lep9R3LC (peptide)
chain: YQQVLTSLPSQNVLQIANDLENLRDLLHLLGGGGRRRRRRRRRLLLC

Kd [5]: 0.462 µM
B2: diLep9R3LC (peptide)
chain: B1 chain
modifications: also: disulfide-linked dimer via C-terminal Cys

Continued, molecule first:

Molecule: EVGQSDYSSYARTSIRASLTFGGGGRRRRRRRRRLLLC [scrambled9R, scrambled peptide, nontargeting control]
SOD1 silencing, brain [1]: not when used with scrambled peptide

Molecule: I: YQQVLTSLPSQNVLQIANDLENLRDLLHLLGGGGRRRRRRRRRLLLC / II: YQQVLTSLPSQNVLQIANDLENLRDLLHLLGGGGRRRRRRRRRLLLC (disulfide I:47-II:47) [diLep9R3LC]
kon [2]: 3300 M⁻¹ s⁻¹
cytotoxicity [3]: did not show any cytotoxicity
